Measured values published in patent US11466255B2, “Methods and compositions for converting non-endocrine pancreatic tissue into insulin-producing cells” (UNIVERSITY OF MIAMI, priority 2015, dated 2022).

B1: BMP-4: member of the BMPs family of proteins that signals through ALK3 and ALK6; SEQ ID NO:3 (protein, listed as Homo sapiens)
chain: SPKHHSQRARKKNKNCRRHSLYVDFSDVGWNDWIVAPPGYQAFYCHGDCPFPLADHLNSTNHAIVQTLVNSVNSSIPKACCVPTELSAISMLYLDEYDKVVLKNYQEMVVEGCGCR
modifications: fragment of BMP-4

System: hNEPT
Experiment: C-peptide content (ELISA, normalised to DNA) of hNEPT
Type: cell-based, human
Method: hNEPT culture: Human islets were isolated at the DRI's cGMP facility following methods already described54, and hNEPT samples (2-4 ml) were obtained as an isolation byproduct. The cells were washed and seeded on tissue culture-treated plates in FBS- and trypsin inhibitor-supplemented RPMI 1640 medium (Gibco-Life Technologies, Grand Island, N.Y.). After 48 h, floating cells were removed with fresh medium replacement. The following day, cultures were either treated with 100 ng/ml BMP-7 (ProSpec-Tany TechnoGene; Ness Ziona, Israel) or remained in the starting medium as controls. Cells were allowed to grow 4-5 days and then the serum-containing medium was replaced by serum-free Advanced RPMI 1640 (Gibco-Life Technologies, Grand Island, N.Y.). Four to five days later the cells were either subjected to static incubation to evaluate their ability to respond to changing glucose concentration or collected for further assessments (such as C-peptide content, immunohistochemistry or cellular composition) or transplantation.
Glucose-stimulated insulin release (GSIR) and total insulin determination: GSIR was performed in six-well plate cultures. BMP-7-treated samples and untreated controls were washed twice with DMEM medium containing 2.5 mM glucose (Low glucose medium or L-medium). Upon addition of 2 ml of the same medium, the cells were cultured for 1 h at 37° C. to bring their insulin secretion to baseline. After 2 more washes, 1 ml of L-medium was added and the cells were returned to the incubator for 1 h. At the end of incubation period, the medium was collected and the cells exposed for 1 h to 1 ml of 20 mM glucose DMEM medium (high glucose medium or H-medium). After the collection of the H-medium supernatant, the cells were washed three times with L-medium and cultured again in low glucose conditions for 1 h. As before, supernatant was collected at the end of the incubation period. The second low glucose incubation is necessary to confirm that the cells are responding to glucose concentration changes in a physiological manner and not dumping insulin. After the last incubation, the cells were collected, washed in PBS and lysed with 1 ml of T-Per (Thermo Scientific, Rockford, Ill.). The lysates and the supernatants from GSIR test were evaluated with ELISA for C-peptide content (Mercodia, Uppsala, Sweden) following manufacturer's instructions. DNA content of the lysates was used to normalize the results (Pico-Green dsDNA Assay Kit, Life Technologies-Molecular Probes, Grand Island, N.Y.).

Molecule | reduction of the BMP-7-mediated induction of C-peptide (dorsomorphin added to BMP-7, n=4) [fold] | C-peptide production induction vs. t=0 (BMP-4 vs BMP-7 comparison, n=6, P=0.43) [fold]
c1cc(-c2cnn3cc(-c4ccc(OCCN5CCCCC5)cc4)cnc23)ccn1 [dorsomorphin, reference compound] | ~3 | –
B1 | – | 198±62.8
